# Legend:
# HepG2 [1] = assay: Effect on SREBP1c gene expression in human HepG2 cells; format: functional, cell-based
# HepG2 [2] = assay: Effect on SREBP1c gene expression in human HepG2 cells relative to TO901317; format: functional
# HepG2 [3] = assay: Effect on triglyceride accumulation in human HepG2 cells relative to TO901317; format: functional
# THP-1 [4] = assay: Stimulation of [3H]cholesterol efflux in human THP1 foam cells loaded with ac-LDL; format: functional, cell-based
# THP-1 [5] = assay: Stimulation of [3H]cholesterol efflux in human THP1 foam cells loaded with ac-LDL relative to TO901317; format: functional
# THP-1 [6] = assay: Effect on ABCA1 gene expression in human differentiated THP1 cells relative to TO901317; format: functional
# HepG2 [7] = assay: Effect on triglyceride accumulation in human HepG2 cells; format: functional, cell-based
# THP-1 [8] = assay: Effect on ABCA1 gene expression in human differentiated THP1 cells; format: functional, cell-based
# [9] = target: T1, Oxysterols receptor LXR-beta (Homo sapiens, UniProt P55055); assay: Agonist activity at human recombinant LXRbeta ligand binding domain in human HuH7 cells co-transfected with fused Gal4-DBD by transactivation assay; format: cell-based, Huh-7
# T1 sequence (P55055 whole entry): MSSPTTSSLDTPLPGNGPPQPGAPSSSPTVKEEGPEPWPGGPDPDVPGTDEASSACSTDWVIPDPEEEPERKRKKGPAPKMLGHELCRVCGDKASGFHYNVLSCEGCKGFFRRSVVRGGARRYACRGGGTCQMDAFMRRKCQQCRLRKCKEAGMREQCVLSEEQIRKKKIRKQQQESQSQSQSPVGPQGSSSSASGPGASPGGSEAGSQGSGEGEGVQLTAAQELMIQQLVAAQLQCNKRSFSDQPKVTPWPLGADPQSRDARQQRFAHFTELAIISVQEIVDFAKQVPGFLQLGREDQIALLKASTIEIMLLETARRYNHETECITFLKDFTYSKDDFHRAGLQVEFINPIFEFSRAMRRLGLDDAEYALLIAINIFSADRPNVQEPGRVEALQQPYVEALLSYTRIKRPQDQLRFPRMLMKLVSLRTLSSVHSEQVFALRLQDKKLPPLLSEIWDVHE
# Mus musculus [10] = assay: Decrease in total cholesterol level in LDL receptor knockout C57BL/6 mouse plasma at 10 mg/kg administered with Western diet after 8 weeks; format: functional; set-up: scale not given: the % may be the effect or the level left
# Mus musculus [11] = assay: Increase in CYP7A1 gene expression in LDL receptor knockout C57BL/6 mouse liver at 10 mg/kg administered with Western diet; format: functional
# Mus musculus [12] = assay: Upregulation of ABCA1 gene expression in LDL receptor knockout C57BL/6 mouse duodenum at 10 mg/kg administered with Western diet; format: functional; conditions: route oral
# [13] = target: T2, Oxysterols receptor LXR-alpha (Homo sapiens, UniProt Q13133)
# Mus musculus [14] = assay: Reduction in atherosclerotic lesion size in LDL receptor knockout C57BL/6 mouse thoracic aorta at 10 mg/kg administered with Western diet after 8 weeks by oil Red-O staining; format: functional; set-up: scale not given: the % may be the effect or the level left
# [15] = target: T1, Oxysterols receptor LXR-beta
# [16] = target: T2, Oxysterols receptor LXR-alpha; remark: listed apart in the source
# Syrian golden hamster [17] = assay: Induction of FAS gene expression in golden Syrian hamster liver at 3 mg/kg administered with chow diet for 7 days measured after 2 hrs of final dose by real time PCR; format: functional, Mesocricetus auratus
# Syrian golden hamster [18] = assay: Effect on triglyceride level in golden Syrian hamster plasma at 3 mg/kg administered with chow diet for 7 days measured after 2 hrs of final dose; format: functional, Mesocricetus auratus
# [19] = Clearance in C57 mouse at 1 mg/kg, iv and 10 mg/kg, po; format: ADME, organism-based; conditions: in vivo
# [20] = Volume of distribution at steady state in C57 mouse at 1 mg/kg, iv and 10 mg/kg, po; format: ADME, organism-based; conditions: in vivo, read-out: Vdss
# [21] = Terminal half life in C57 mouse at 10 mg/kg, po; format: ADME, organism-based; set-up: dose 10 mg/kg, route oral; conditions: in vivo, read-out: beta t1/2 (converted)
# [22] = Half life in C57 mouse at 1 mg/kg, iv; format: ADME, organism-based; set-up: dose 1 mg/kg, route intravenous; conditions: in vivo
# [23] = Tmax in C57 mouse at 1 mg/kg, iv and 10 mg/kg, po; format: ADME, organism-based; conditions: in vivo
# [24] = Bioavailability in C57 mouse at 1 mg/kg, iv and 10 mg/kg, po; format: ADME, organism-based; conditions: in vivo
# [25] = Cmax in male C57 mice after 10 mg/kg oral dose; format: ADME, organism-based; set-up: dose 10 mg/kg, route oral; conditions: C57, mouse, in vivo
# [26] = AUC (0 to infinity) in C57 mouse at 1 mg/kg, iv and 10 mg/kg, po; format: ADME, organism-based; conditions: plasma
EC50 (HepG2 [1]),EC50 (THP-1 [4]),EC50 (HepG2 [7]),EC50 [9],Compound,Efficacy (HepG2 [2]),Efficacy (HepG2 [3]),Efficacy (THP-1 [5]),Efficacy (THP-1 [6]),Activity (Mus musculus [10]),Activity (Mus musculus [14]),further results
61 nM,3 nM,–,–,O=S(=O)(c1ccccc1)N(CC(F)(F)F)c1ccc(C(O)(C(F)(F)F)C(F)(F)F)cc1 [T091317],100%,100%,100%,100%,–,–,–
210 nM,31 nM,2000 nM,310 nM,O=C(O)Cc1cccc(OCCCN(Cc2cccc(C(F)(F)F)c2Cl)CC(c2ccccc2)c2ccccc2)c1,137%,45%,84%,178%,17%,40%,EC50 (THP-1 [8]): 434 nM; fold change (FC) (Mus musculus [11]): 1.9; fold change (FC) (Mus musculus [12]): 6.9; EC50 [13]: 660 nM
–,–,–,90 nM,O=C(O)Cc1ccc(CNc2cccc(-c3c(Cc4ccccc4)cnc4c(C(F)(F)F)cccc34)c2)cc1,–,–,–,–,–,–,IC50 [15]: 2 nM; IC50 [16]: 8 nM
120 nM,6 nM,223 nM,–,O=C(O)Cc1ccc(COc2cccc(-c3c(Cc4ccccc4)cnc4c(C(F)(F)F)cccc34)c2)cc1,96%,85%,88%,155%,20%,38%,fold change (FC) (Syrian golden hamster [17]): 4; Activity (Syrian golden hamster [18]): 25%
–,–,–,–,FC(F)(F)c1cccc2c(-c3ccccc3)n(Cc3ccccc3)nc12,–,–,–,–,–,–,clearance [19]: 81 mL/min/kg; Vd [20]: 5.2 L/kg; half-life [21]: 2.2 h; half-life [22]: 1.9 h; Tmax [23]: 0.25 h; bioavailability [24]: 16%; Cmax [25]: 124 ng/mL; AUC(0-inf) [26]: 321 ng·h/mL

# From ChEMBL document CHEMBL1152299, “Indazole-based liver X receptor (LXR) modulators with maintained atherosclerotic lesion reduction activity but diminished stimulation of hepatic triglyceride synthesis” (J Med Chem, 2008)
